Results taken from paper PMC4681141, “Antiplasmodial activity, in vivo pharmacokinetics and anti-malarial efficacy evaluation of hydroxypyridinone hybrids in a mouse model” (Malaria Journal, 2015).
Like-named read-outs stand apart in the source and are kept apart here.

Legend:
P. falciparum K1 = experiment: In vitro antiplasmodial pLDH assay, chloroquine-resistant strain K1; assay type: cell-based; settings: Plasmodium falciparum, read-out: IC50 against K1
Experimental: (§1) The parasites were continuously cultured in vitro according to the method described by Trager and Jensen but with modifications. The cultures were maintained at 37 °C in O-positive (O^+) human erythrocytes in complete culture medium, which contained RPMI 1640 (Gibco-BRL Laboratories) growth medium supplemented with 25 mM 4-(2-hydroxyethyl)piperazine-1-ethanesulfonic acid (HEPES) (Sigma-Aldrich Chemical Company) buffer, 22 mM glucose (Sigma), 5 g/l albumax (Gibco-BRL Laboratories), 25 mM sodium carbonate (Sigma) and 0.3 mM hypoxanthine (Sigma). In order to control microbial contamination […] gentamicin (Sigma) was added to the culture medium, and to obtain a loosely synchronous ring stage, 5 % sterile aqueous D-sorbitol (Sigma) was used. The antiplasmodial assay was initiated with the parasites in the trophozoite stage and with a parasitaemia and haematocrit of 2 %.
(§2) Non-parasitized erythrocytes were used as a negative control and parasitized erythrocytes, without any test compound, were used as positive control. A full day dose–response was performed for all compounds to determine the concentration inhibiting 50 % of parasite growth (IC50 value). The plates were incubated for 48 h at 37 °C in a gassing chamber containing a mixture of 5 % CO2, 3 % O2 and 92 % […]. In order to quantify parasite viability and to determine the effect of the compounds on the parasite, a parasite lactate dehydrogenase (pLDH) assay was used as described by Makler et al., but with modifications.

[1] = test system: P. falciparum chloroquine-sensitive and -resistant strains; assay type: cell-based, Plasmodium falciparum; settings: highest CQR IC50 value / lowest CQS IC50 value
Description: This value provides a quantitative measurement of the antiplasmodial activity against CQR strains relative to that against CQS strains. The higher the RI value, the higher the level of resistance.

[2] = Drug exposure in P. berghei-infected mice (blood concentrations on D0); assay type: in vivo, C57BL/6 mice; settings: oral 20 and 40 mg/kg
[3] = Pharmacokinetic study in uninfected C57BL/6 mice (LC-MS/MS of blood); assay type: in vivo; settings: for clearance / Vd: iv; for Vd: read-out: Vss; for AUC(0-inf) / half-life: mouse; for blood levels after oral dosing: oral 20 mg/kg, uninfected mice
Experimental: A comprehensive pharmacokinetic (PK) study of compound 1 and 2 was performed on 10-week old male and female C57BL/6 mice (20–30 g) obtained from the University of Cape Town Medical School Animal Unit. The mice were housed in ventilated cages at room temperature (approximately 22 °C) with constant supply of food and water and were monitored twice daily. The study was authorized by the Faculty of Health Science Animal Research Ethics Committee before commencement: Reference No. 012/020. All the work was performed according to the guidelines established by Austin et al.. […] In each experiment a group of five animals were dosed orally (10 ml/kg) at 20 mg/kg and intravenously (5 ml/kg) via the dorsal penile vein at 4 mg/kg under anaesthesia. For oral dosage, a gavage needle was used for the administration of test compounds directly into the lower oesophagus or stomach. […] Lithium heparin-coated MiniCollect® Plasma Tubes (Lasec, South Africa) were used to collect the blood samples. The collected blood samples were placed on ice immediately after sampling, and were frozen at −80 °C until analysis. The blood samples stored at −80 °C were thawed at room temperature and then mixed by vortex to ensure homogeneity. Twenty µl of blood was mixed with 50 µl Milli-Q water (Millipore, USA) and 150 µl acetonitrile (Merck). The mixture was vortexed for 15 s, sonicated for 10 min and centrifuged at 13,000g for 5 min. The supernatant was transferred to a flat-bottomed glass insert and placed in a glass vial and placed in the autosampler for analysis. A liquid chromatography–mass spectrometry (LC/MS/MS) system was employed for the quantification of the compounds in mouse blood. The LC system employed was an ultra-fast liquid chromatography (UFLC) system (Shimadzu) and the separation of the compounds was performed on a Phenomenex, Luna 5 μm PFP (2), 100 Å, 50 mm × 2 mm analytical column. The mobile phase A consisted of 0.1 % formic acid in water (v/v) and mobile phase B consisted of acetonitrile. The flow rate was set at 500 µl/min and the temperature of the column was maintained at 40 °C. […] The detection of the compounds was performed on an AB Sciex 3200 Q-Trap mass spectrometer which was operated at unit resolution in the multiple reaction monitoring (MRM) mode. The calibration range for all the compounds was between 7.8 and 1000 ng/ml and the accuracy (% Nom) for the calibration curves was between 90.3 and 104.0 %. […] Non-compartmental analysis was performed on each individual set of data using PK Solutions 2.0 Pharmacokinetic Analysis Software (Summit Research Services, Montrose, USA). The following PK parameters were calculated: apparent terminal half-life [t½ (min)], total exposure [AUC0–α (µM min)], volume of distribution (l/kg) and plasma clearance [CL (l/min/kg)].

P. falciparum 3D7 = experiment: In vitro antiplasmodial pLDH assay, chloroquine-sensitive strain 3D7; assay type: cell-based; settings: Plasmodium falciparum, read-out: IC50 against 3D7
Experimental: as §1, §2

P. falciparum D10 = experiment: In vitro antiplasmodial pLDH assay, chloroquine-sensitive strain D10; assay type: cell-based; settings: Plasmodium falciparum, read-out: IC50 against D10
Experimental: as §1, §2

P. falciparum Dd2 = experiment: In vitro antiplasmodial pLDH assay, chloroquine-resistant strain Dd2; assay type: cell-based; settings: Plasmodium falciparum, read-out: IC50 against Dd2
Experimental: as §1, §2

[4] = test system: Plasmodium berghei (ANKA strain); experiment: In vivo anti-malarial efficacy, Peters' 4-day test; parameters: species or system C57BL/6 mice; settings: for % reduction of parasitemia Day 9: vs placebo
Experimental: The chloroquine-sensitive Plasmodium berghei (ANKA strain) was used to assess in vivo anti-malarial efficacy of the test compounds. The parasites were maintained in a C57BL/6 mouse by inoculation with 250 µl of a 1:1 (v/v) suspension of erythrocytes infected with P. berghei in phosphate buffered saline (PBS). On the day of the experiment the host mouse was anaesthetized intraperitoneally with a mixture of ketamine (120 mg/kg) and xylazine (16 mg/kg). Whole blood from the host mouse was drawn by cardiac puncture into a Vacuette® heparin tube and a suspension of P. berghei parasitized erythrocytes (1 × 10^7) in PBS was prepared and the test mice were infected with 200 µl of this suspension intraperitoneally.
Evaluation of the curative potential of the test compounds was performed using Peters’ 4-day test as described. The mice were dosed orally at 20 and 40 mg/kg and intravenously at 4 and 8 mg/kg 2 h post-infection and for three consecutive days (D0 to D3). On the first day (D0), blood samples were collected serially from each mouse at 0.5, 1, 3, and 7 h post-dosing in order to provide quantitative measurements of drug exposure which is needed for the sound interpretation of the efficacy of the anti-malarials. […] The mice were also dosed orally with PBS as a control. The parasitaemia was determined from the […] (D4) by preparing thin blood films from the tail of each mouse and the smears were fixed with methanol and stained with Giemsa. This was repeated every 2–3 days to monitor the efficacy of the test compounds. The formula used to calculate % parasitaemia and % reduction is described below, respectively. The data for % parasitaemia and % reduction of parasitaemia is presented in Table 4. %Parasitaemia =No.ofparasitizedRBCoutof500erythrocytes/Totalno.ofRBCcounted×100 %Reduction =Parasitamiaofplacebo-Parasitamiaoftestcompound/Parasitamiaofplacebo×100

[5] = parameters: method as in earlier work; settings: mice; ref 25 (Salako); cited from earlier work
[6] = Toxicity observed in dosed mice; assay type: in vivo; settings: dosed orally and intravenously
Experimental: They both presented poor PK properties following oral administration. However, the LC–MS/MS assay only detected the parent compound and no assays were conducted to measure or identify any possible metabolites. The decision to perform efficacy studies was based on the possibility that compounds 1 and 2 may have high first pass effect which may cause low bioavailability. After the infected mice were dosed orally and intravenously with compound 1 and 2, the blood concentrations were measured in P. berghei-infected mice at different time intervals to measure the exposure of the infected mice to the drug. […] High toxicity was also detected when dosed orally and intravenously. The PK studies were only conducted for 9 h, and therefore the symptoms of toxicity were not severe. However, with efficacy studies the mice are dosed every day for 4 days, and this might cause distress to the mice because the toxic effect of the drug will be more severe. The efficacy study for compound 2 is not reported in this paper.

[7] = chloroquine-resistant strain K1, 48 h, pLDH, mean of three independent experiments
[8] = both sexes, C57BL/6, mouse, whole blood, 4 mg/kg, intravenous 4 mg/kg, uninfected C57BL/6 mice, blood
[9] = both sexes, whole blood, intravenous 4 mg/kg, uninfected C57BL/6 mice, blood
[10] = intravenous 4 mg/kg, uninfected C57BL/6 mice, blood, 4 mg/kg
[11] = chloroquine-sensitive strain 3D7, 48 h, pLDH, mean of three independent experiments
[12] = chloroquine-sensitive strain D10, 48 h, pLDH, mean of three independent experiments
[13] = chloroquine-resistant strain Dd2, 48 h, pLDH, mean of three independent experiments
[14] = Oral 10 mg/kg/day, 4 days (reference drug)

O=c1cc(CNCCCCCCNc2ccnc3cc(Cl)ccc23)n(C2CC2)cc1OCc1ccccc1 [Compound 1]
IC50 (P. falciparum K1; [7]): 505 ± 100 nM
RI (resistance index) [1]: 10.7
blood concentration levels in infected mice dosed orally [2]: below the detection level
clearance [3, 8]: 28 mL/min/kg
Vd [3, 8]: 20 L/kg
concentration at 9 h ([3]; both sexes, C57BL/6, mouse, whole blood, intravenous 4 mg/kg, 9 h post-dosing, read-out: blood level after 9 h): 160 nM
AUC(0-inf) [3, 9]: 3.27 µM·h
half-life [3, 9]: 4.3 ± 1.02 h
CL [3, 10]: 27.6 ± 8 mL/min/kg
Vss [3, 10]: 20.1 ± 6 L/kg
oral bioavailability ([3]; mice, oral dosing, in words): poor oral bioavailability
blood levels after oral dosing [3]: below the LOQ
IC50 (P. falciparum 3D7; [11]): 64 ± 20 nM
IC50 (P. falciparum D10; [12]): 47 ± 10 nM
IC50 (P. falciparum Dd2; [13]): 463 ± 120 nM
Average % parasitemia Day 4 ([4]; IV 4 mg/kg/day, 4 days): 0.4 ± 0.4%
Average % parasitemia Day 6 ([4]; IV 4 mg/kg/day, 4 days): 1.8 ± 1.4%
Average % parasitemia Day 9 ([4]; IV 4 mg/kg/day, 4 days): 8.1 ± 5%
% reduction of parasitemia Day 9 ([4]; IV 4 mg/kg/day, 4 days, 4 mg/kg/day): 61.9 ± 26%
% reduction of parasitemia Day 9 ([4]; IV 4 mg/kg/day, 4 days, listed as compound 1, 4 mg/kg/day): 62%
Average % parasitemia Day 4 ([4]; IV 8 mg/kg/day, 4 days): 0%
Average % parasitemia Day 6 ([4]; IV 8 mg/kg/day, 4 days): 0.9 ± 0.9%
Average % parasitemia Day 9 ([4]; IV 8 mg/kg/day, 4 days): 5.1 ± 1.7%
% reduction of parasitemia Day 9 ([4]; IV 8 mg/kg/day, 4 days, 8 mg/kg/day): 82.9 ± 2.5%
% reduction of parasitemia Day 9 ([4]; IV 8 mg/kg/day, 4 days, listed as compound 1, 8 mg/kg/day): 83%
Average % parasitemia Day 4 ([4]; Oral 20 mg/kg/day, 4 days): 5.3 ± 3.9%
Average % parasitemia Day 6 ([4]; Oral 20 mg/kg/day, 4 days): 22.7 ± 10%
Average % parasitemia Day 9 ([4]; Oral 20 mg/kg/day, 4 days): 24.2 ± 5.6%
% reduction of parasitemia Day 9 ([4]; Oral 20 mg/kg/day, 4 days): 3.7 ± 5.6%
Average % parasitemia Day 4 ([4]; Oral 40 mg/kg/day, 4 days): 5.9 ± 2%
Average % parasitemia Day 6 ([4]; Oral 40 mg/kg/day, 4 days): 10.7 ± 5%
Average % parasitemia Day 9 ([4]; Oral 40 mg/kg/day, 4 days): 48.6 ± 12%
% reduction of parasitemia Day 9 ([4]; Oral 40 mg/kg/day, 4 days): −93.8 ± 49.3%
parasitaemia on day 4 in mice dosed orally ([4]; oral groups (20 and 40 mg/kg/day), day 4): ~5%

CCN(CC)CCCC(C)Nc1ccnc2cc(Cl)ccc12 (stereo not drawn) [Chloroquine, reference compound]
IC50 (P. falciparum K1; K1, 48 h): 279 ± 2 nM
IC50 (P. falciparum 3D7; 3D7, 48 h): 19 nM
IC50 (P. falciparum D10; D10, 48 h): 23 nM
IC50 (P. falciparum Dd2; DD2, 48 h): 180 ± 10 nM
Average % parasitemia Day 4 [4, 14]: 0%
Average % parasitemia Day 6 [4, 14]: 0%
Average % parasitemia Day 9 [4, 14]: 2 ± 1.6%
% reduction of parasitemia Day 9 [4, 14]: 92.0 ± 0.4%
half-life [5]: 7 h
oral bioavailability [5]: 79–90%

CCc1c(OCc2ccccc2)c(=O)ccn1CCCCCCNc1ccnc2cc(Cl)ccc12 [Compound 2]
IC50 (P. falciparum K1; [7]): 89 ± 10 nM
RI (resistance index) [1]: 2.2
blood concentration levels in infected mice dosed orally [2]: below the detection level
clearance [3, 8]: 366 ± 46.6 mL/min/kg
Vd [3, 8]: 154.1 ± 1 L/kg
concentration at 2 h ([3]; both sexes, C57BL/6, mouse, whole blood, intravenous 4 mg/kg, 2 h post-dosing, read-out: blood level after 2 h): 30 nM
AUC(0-inf) [3, 9]: 0.42 µM·h
half-life [3, 9]: 0.7 ± 0.2 h
blood levels after oral dosing [3]: below the LOQ
IC50 (P. falciparum 3D7; [11]): 41 ± 20 nM
IC50 (P. falciparum D10; [12]): 122 ± 30 nM
toxicity [6]: High toxicity
IC50 (P. falciparum Dd2; [13]): 76 ± 10 nM
